{"source": "ChEMBL document CHEMBL1201862", "about": "“PubChem BioAssay data set” (2004)", "type_in_all_cases": "functional", "key": {"[1]": {"target": "Macrophage-stimulating protein receptor (Homo sapiens, UniProt Q04912)", "sequence (Q04912 25-304 limits assumed)": "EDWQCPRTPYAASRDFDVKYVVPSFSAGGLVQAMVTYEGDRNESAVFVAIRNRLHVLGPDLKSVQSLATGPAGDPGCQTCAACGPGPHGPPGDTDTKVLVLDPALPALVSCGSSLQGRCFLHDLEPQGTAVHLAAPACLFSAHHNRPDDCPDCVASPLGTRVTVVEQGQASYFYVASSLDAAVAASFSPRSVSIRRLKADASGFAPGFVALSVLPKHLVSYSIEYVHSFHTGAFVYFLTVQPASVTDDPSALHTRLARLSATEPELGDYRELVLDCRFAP", "sequence (Q04912 310-1400 limits assumed)": "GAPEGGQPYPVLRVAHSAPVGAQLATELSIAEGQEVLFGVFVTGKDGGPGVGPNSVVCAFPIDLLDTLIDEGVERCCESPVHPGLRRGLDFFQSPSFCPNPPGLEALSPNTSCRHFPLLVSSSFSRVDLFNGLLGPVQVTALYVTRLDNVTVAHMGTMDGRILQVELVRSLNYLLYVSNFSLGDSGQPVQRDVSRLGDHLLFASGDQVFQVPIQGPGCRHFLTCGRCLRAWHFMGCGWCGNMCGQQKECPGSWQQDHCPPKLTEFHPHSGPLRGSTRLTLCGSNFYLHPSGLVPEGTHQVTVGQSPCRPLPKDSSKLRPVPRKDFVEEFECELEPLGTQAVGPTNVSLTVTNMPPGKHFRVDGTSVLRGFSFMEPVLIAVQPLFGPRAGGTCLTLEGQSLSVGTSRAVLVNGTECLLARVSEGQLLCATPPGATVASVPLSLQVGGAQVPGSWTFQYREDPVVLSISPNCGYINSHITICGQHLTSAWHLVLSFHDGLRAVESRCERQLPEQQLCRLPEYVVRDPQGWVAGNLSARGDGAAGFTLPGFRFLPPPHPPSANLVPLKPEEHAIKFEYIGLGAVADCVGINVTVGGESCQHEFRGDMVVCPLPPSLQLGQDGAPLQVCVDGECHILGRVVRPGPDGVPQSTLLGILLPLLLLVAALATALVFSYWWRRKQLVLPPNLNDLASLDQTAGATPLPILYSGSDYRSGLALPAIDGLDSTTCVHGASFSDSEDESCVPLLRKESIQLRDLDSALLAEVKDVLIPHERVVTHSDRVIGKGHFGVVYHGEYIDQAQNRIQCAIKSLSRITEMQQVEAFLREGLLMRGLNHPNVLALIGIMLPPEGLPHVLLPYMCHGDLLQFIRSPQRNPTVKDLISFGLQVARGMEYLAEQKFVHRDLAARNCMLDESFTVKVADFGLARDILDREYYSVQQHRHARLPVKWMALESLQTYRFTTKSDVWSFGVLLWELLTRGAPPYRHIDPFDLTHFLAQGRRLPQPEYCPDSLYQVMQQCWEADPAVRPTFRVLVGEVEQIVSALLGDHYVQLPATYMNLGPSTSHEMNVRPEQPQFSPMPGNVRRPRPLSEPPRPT", "assay": "Navigating the Kinome. Panel member name: MST1R"}, "[2]": {"target": "Protein kinase C zeta type (Homo sapiens, UniProt Q05513)", "sequence (Q05513 whole entry)": "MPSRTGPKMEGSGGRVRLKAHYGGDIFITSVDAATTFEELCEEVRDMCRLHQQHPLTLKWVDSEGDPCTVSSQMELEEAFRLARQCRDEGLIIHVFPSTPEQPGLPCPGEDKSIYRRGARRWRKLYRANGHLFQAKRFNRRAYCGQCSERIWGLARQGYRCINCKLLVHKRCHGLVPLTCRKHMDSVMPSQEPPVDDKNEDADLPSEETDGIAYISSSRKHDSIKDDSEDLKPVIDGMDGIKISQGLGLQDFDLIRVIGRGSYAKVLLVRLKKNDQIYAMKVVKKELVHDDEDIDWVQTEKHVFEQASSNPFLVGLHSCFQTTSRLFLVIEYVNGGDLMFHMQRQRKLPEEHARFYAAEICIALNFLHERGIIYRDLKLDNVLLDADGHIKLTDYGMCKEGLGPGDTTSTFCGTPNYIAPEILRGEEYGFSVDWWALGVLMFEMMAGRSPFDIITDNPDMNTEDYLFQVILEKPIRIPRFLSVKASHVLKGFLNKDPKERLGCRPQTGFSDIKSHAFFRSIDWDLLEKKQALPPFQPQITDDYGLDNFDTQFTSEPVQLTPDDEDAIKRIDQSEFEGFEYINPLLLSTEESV"}, "[3]": {"target": "Dual specificity protein kinase CLK2 (Homo sapiens, UniProt P49760)"}, "[4]": {"target": "Cyclin-dependent kinase 9 (Homo sapiens, UniProt P50750)", "sequence (P50750 whole entry)": "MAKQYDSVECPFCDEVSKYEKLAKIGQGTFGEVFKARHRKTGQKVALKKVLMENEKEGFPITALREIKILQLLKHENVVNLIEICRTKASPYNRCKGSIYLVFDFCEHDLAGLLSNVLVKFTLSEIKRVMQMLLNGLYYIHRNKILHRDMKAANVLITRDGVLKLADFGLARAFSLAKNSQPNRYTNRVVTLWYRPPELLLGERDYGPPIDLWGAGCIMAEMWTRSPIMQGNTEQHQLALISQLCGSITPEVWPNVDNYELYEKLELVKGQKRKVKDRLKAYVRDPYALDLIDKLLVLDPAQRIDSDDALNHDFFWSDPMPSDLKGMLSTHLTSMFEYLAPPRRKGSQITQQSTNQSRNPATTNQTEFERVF"}, "[5]": {"target": "Mitogen-activated protein kinase 14 (Homo sapiens, UniProt Q16539)"}, "[6]": {"target": "Serine/threonine-protein kinase TBK1 (Homo sapiens, UniProt Q9UHD2)", "sequence (Q9UHD2 whole entry)": "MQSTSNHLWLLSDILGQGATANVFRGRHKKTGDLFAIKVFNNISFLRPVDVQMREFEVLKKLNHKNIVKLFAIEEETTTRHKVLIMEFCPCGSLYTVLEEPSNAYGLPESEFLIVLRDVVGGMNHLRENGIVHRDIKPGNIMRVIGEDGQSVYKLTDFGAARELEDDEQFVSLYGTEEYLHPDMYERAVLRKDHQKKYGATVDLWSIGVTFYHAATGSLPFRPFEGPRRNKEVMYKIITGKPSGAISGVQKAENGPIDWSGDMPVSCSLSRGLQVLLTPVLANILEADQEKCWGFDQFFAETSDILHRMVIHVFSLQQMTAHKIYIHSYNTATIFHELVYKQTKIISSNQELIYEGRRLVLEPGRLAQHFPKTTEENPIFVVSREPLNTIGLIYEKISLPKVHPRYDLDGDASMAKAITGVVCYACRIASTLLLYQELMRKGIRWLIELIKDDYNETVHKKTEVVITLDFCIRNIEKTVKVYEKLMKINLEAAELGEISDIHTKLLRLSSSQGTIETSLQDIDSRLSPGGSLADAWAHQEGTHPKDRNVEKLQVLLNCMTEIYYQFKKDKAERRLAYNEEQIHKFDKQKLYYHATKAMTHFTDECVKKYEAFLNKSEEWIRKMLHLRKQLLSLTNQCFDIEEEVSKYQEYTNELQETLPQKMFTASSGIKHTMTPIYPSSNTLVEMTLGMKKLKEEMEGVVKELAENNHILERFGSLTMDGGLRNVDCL", "assay": "Navigating the Kinome. Panel member name: TBK1"}, "[7]": {"target": "Cyclin-dependent kinase 5 (Homo sapiens, UniProt Q00535)", "sequence (Q00535 whole entry)": "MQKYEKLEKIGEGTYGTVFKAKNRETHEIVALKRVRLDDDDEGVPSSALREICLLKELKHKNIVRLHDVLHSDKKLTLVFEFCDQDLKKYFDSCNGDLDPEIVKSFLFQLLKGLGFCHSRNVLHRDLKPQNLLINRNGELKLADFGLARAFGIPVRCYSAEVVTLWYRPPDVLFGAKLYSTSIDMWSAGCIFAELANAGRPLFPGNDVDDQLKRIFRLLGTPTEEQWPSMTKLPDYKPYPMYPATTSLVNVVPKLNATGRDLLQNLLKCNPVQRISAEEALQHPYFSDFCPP"}, "[8]": {"target": "Platelet-derived growth factor receptor alpha (Homo sapiens, UniProt P16234)", "assay": "Navigating the Kinome. Panel member name: PDGFRA"}, "[9]": {"target": "Serine/threonine-protein kinase pim-3 (Homo sapiens, UniProt Q86V86)"}, "[10]": {"target": "Dual specificity tyrosine-phosphorylation-regulated kinase 1B (Homo sapiens, UniProt Q9Y463)", "sequence (Q9Y463 whole entry)": "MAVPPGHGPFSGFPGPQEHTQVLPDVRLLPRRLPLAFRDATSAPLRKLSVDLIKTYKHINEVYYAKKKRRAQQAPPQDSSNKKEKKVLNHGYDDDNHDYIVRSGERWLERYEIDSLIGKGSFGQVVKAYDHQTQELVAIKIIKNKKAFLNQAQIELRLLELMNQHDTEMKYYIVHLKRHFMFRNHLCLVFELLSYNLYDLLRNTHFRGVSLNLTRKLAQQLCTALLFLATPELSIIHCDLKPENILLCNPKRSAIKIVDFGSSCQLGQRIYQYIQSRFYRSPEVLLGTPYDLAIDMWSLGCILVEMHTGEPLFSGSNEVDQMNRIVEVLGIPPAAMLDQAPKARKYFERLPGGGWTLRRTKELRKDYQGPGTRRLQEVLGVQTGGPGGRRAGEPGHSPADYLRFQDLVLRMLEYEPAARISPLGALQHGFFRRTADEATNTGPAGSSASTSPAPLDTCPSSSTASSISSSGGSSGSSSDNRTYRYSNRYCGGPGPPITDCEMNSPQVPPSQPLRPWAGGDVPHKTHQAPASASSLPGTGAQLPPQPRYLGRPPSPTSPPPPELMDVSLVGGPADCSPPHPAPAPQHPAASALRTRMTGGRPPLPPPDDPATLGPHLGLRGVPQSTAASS", "assay": "Navigating the Kinome. Panel member name: DYRK1B"}, "[11]": {"target": "Ribosomal protein S6 kinase beta-1 (Homo sapiens, UniProt P23443)"}, "[12]": {"assay": "IC50 of insulin release inhibition, rat insulinoma INS-1E line, 5 mM glucose, cell-based (AID 1117331)"}, "[13]": {"target": "Calcium/calmodulin-dependent protein kinase kinase 2 (Homo sapiens, UniProt Q96RR4)", "sequence (Q96RR4 whole entry)": "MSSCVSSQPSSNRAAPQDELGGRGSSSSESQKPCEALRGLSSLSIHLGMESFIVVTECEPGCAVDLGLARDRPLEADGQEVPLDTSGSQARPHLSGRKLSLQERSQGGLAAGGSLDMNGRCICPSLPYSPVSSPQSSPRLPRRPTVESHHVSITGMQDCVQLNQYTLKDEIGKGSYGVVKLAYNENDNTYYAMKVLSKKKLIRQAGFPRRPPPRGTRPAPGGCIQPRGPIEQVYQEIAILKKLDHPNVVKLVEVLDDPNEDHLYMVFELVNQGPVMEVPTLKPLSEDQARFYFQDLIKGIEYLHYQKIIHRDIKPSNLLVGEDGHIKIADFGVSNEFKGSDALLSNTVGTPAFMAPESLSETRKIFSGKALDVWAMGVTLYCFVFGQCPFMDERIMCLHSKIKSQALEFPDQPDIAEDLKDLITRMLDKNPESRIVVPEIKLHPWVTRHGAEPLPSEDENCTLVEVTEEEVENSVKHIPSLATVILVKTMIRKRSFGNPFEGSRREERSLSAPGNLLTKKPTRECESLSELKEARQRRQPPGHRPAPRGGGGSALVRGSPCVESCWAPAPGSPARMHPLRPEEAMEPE", "assay": "Navigating the Kinome. Panel member name: CAMKK2"}, "[14]": {"target": "Cyclin-dependent kinase 2 (Homo sapiens, UniProt P24941)"}, "[15]": {"target": "Rho-associated protein kinase 2 (Homo sapiens, UniProt O75116)"}, "[16]": {"target": "Calcium/calmodulin-dependent protein kinase type II subunit beta (Homo sapiens, UniProt Q13554)"}, "[17]": {"target": "Inhibitor of nuclear factor kappa-B kinase subunit alpha (Homo sapiens, UniProt O15111)"}, "[18]": {"target": "Cyclin-dependent kinase 19 (Homo sapiens, UniProt Q9BWU1)", "assay": "Navigating the Kinome. Panel member name: CDC2L6"}, "Focal adhesion kinase 1": {"target": "Focal adhesion kinase 1 (Homo sapiens, UniProt Q05397)"}, "[19]": {"target": "Protein-tyrosine kinase 2-beta (Homo sapiens, UniProt Q14289)"}, "[20]": {"target": "Ribosomal protein S6 kinase alpha-5 (Homo sapiens, UniProt O75582)"}, "[21]": {"target": "Eukaryotic elongation factor 2 kinase (Homo sapiens, UniProt O00418)"}, "[22]": {"target": "Cyclin-dependent kinase 1 (Homo sapiens, UniProt P06493)"}}, "note": "Activity calls are given as the source filed them.", "data": [{"smiles": "NC(=O)c1cc(-c2ccnc(N)n2)[nH]c1-c1ccc(Cl)cc1Cl", "values": [{"measurement": "Ki", "setting": "[1]", "result": "> 3980 nM (inactive)"}, {"measurement": "Ki", "setting": "[2]", "result": "794 nM (active)"}, {"measurement": "pKi", "setting": "[2]", "result": 6.1}, {"measurement": "Ki", "setting": "[3]", "result": "> 2.51 nM (inactive)"}, {"measurement": "Ki", "setting": "[4]", "result": "3.98 nM (active)"}, {"measurement": "pKi", "setting": "[4]", "result": 8.4}, {"measurement": "Ki", "setting": "[5]", "result": "> 3980 nM (inactive)"}, {"measurement": "Ki", "setting": "[6]", "result": "> 3160 nM (inactive)"}, {"measurement": "Ki", "setting": "[7]", "result": "316 nM (active)"}, {"measurement": "pKi", "setting": "[7]", "result": 6.5}, {"measurement": "Ki", "setting": "[8]", "result": "> 2510 nM (inactive)"}, {"measurement": "Ki", "setting": "[9]", "result": "398 nM (active)"}, {"measurement": "pKi", "setting": "[9]", "result": 6.4}, {"measurement": "Ki", "setting": "[10]", "result": "0.631 nM (active)"}, {"measurement": "pKi", "setting": "[10]", "result": 9.2}, {"measurement": "Ki", "setting": "[11]", "result": "> 6310 nM (inactive)"}]}, {"smiles": "Cc1ccc(-n2nc(C(C)(C)C)cc2NC(=O)Nc2ccc(OCCN3CCOCC3)c3ccccc23)cc1", "note": "[DORAMAPIMOD]", "values": [{"measurement": "IC50", "setting": "[12]", "result": "> 33300 nM (inactive)"}, {"measurement": "Ki", "setting": "[13]", "result": "> 2510 nM (inactive)"}]}, {"smiles": "NC(COc1cncc(-c2ccc3c(c2)C(=Cc2ccco2)C(=O)N3)c1)Cc1c[nH]c2ccccc12", "note": "(stereo not drawn)", "values": [{"measurement": "Ki", "setting": "[14]", "result": "126 nM (active)"}, {"measurement": "Ki", "setting": "[15]", "result": "12.6 nM (active)"}, {"measurement": "Ki", "setting": "[16]", "result": "251 nM (active)"}, {"measurement": "Ki", "setting": "[17]", "result": "398 nM (active)"}, {"measurement": "Ki", "setting": "[18]", "result": "> 100000 nM (inactive)"}, {"measurement": "Ki", "setting": "Focal adhesion kinase 1", "result": "> 1580 nM (inactive)"}, {"measurement": "Ki", "setting": "[19]", "result": "> 1580 nM (inactive)"}, {"measurement": "Ki", "setting": "[20]", "result": "25.1 nM (active)"}, {"measurement": "Ki", "setting": "[21]", "result": "1260 nM (active)"}, {"measurement": "Ki", "setting": "[22]", "result": "251 nM (active)"}]}]}
